According to article PMC7026080, “Phenotypic high-throughput screening platform identifies novel chemotypes for necroptosis inhibition” (Cell Death Discovery, 2020):
pEC50: −log10 of the molar value. Like-named read-outs stand apart in the source and are kept apart here.

Legend:
MDR1 = experiment: MDCK-MDR1 cell-based permeability assay; assay type: in vitro ADME; settings: dog
BV2 cells = experiment: Necroptosis protection in BV2 cells (Z-VAD-FMK), 24 h; assay type: cell-based, murine; settings: compounds at 10 μM, 25 μM Z-VAD-FMK
Description: Necroptosis inhibition properties were further examined using two additional cellular models of regulated necrosis. First, in human adenocarcinoma HT29 cells, and then in immortalized murine microglial BV2 cells, where we co-incubated a mixture of human or murine TNF-α, Smac mimetic […], pan-caspase inhibitor Z-VAD-FMK[29] or Z-VAD-FMK alone, and tested compounds at 10 μM for 24 h. […] In parallel, preliminary data for compound liver toxicity was extrapolated using HepG2 cells.
Fig. 3 Secondary-stage cascade for hit validation and compound refinement for further studies. a Compound ability to prevent necroptosis execution in HT29 cells co-incubated with 20 ng/mL hTNF-α (T) together with 250 nM Smac mimetic BV6 (S) and […] Z-VAD-FMK (Z), and selected compounds at 10 μM for 24 h. b Selected compound ability to prevent necroptosis execution in BV2 cells co-incubated with 25 μM Z-VAD-FMK (Z) and compounds at 10 μM for 24 h. c Selected compound toxicity evaluation in HepG2 cells incubated with test compounds at 100 and 50 μM for 24 h. Data represent mean values ± SEM of three independent experiments normalized to untreated control. Cell viability was assessed using a luminescence-based readout for AK release and ATP production, and a colorimetric-based readout for LDH release and MTS metabolism. ns, not significant; *p < 0.05, ***p < 0.001.
Cell treatments and viability assays. […]

Jurkat FADD-/- cells = experiment: Necroptosis inhibition in Jurkat FADD-/- cells + TNF-α, 8 h, AK release; assay type: cell-based; settings: Homo sapiens; for pEC50: 8 h, screening step 2, AK release, read-out: EC50 Jurkat FADD(-/-) + TNF-α (in vitro); for EC50: read-out: Jurkat FADD (-/-) (in vitro) pEC50 (converted)
Description: The second screening step aimed to determine the EC50 of selected compounds. L929 and Jurkat FADD^-/- cells were co-incubated with TNF-α and test compounds at 10-point concentration range (0.004–100 μM) for 8 h. Compound-mediated inhibition of necroptosis was assessed through AK release and the EC50 calculated. Jurkat cells were used to validate results in human cells. […] In HTS step two, 4374 compounds (3353 hits from HTS step one plus 1021 near neighbours) were evaluated for potency by dose-response curves. From those, 1,438 hit compounds passed the selection criteria on both cell lines, corresponding to a […] hit rate.
L929 cells were co-incubated for 8 h with mTNF-α and test compounds at 31.7 μM after which AK release was measured. […] Hit compounds were then evaluated for apoptosis modulation. Further details are provided as Supplementary Information.
Cell treatments and viability assays. Cells were seeded in 384- or 96-well plates at 1000 or 8000 cells/well (in 12.5 μL or 100 μL final volume), respectively, using a Multidrop^TM Combi Reagent Dispenser (ThermoFisher Scientific). For inducing necroptosis, L929 and Jurkat FADD^-/- cells were incubated with 10 ng/mL mTNF-α and hTNF-α respectively; BV2 cells with 25 µM Z-VAD-FMK, and HT29 cells with 20 ng/mL hTNF-α, 250 nM Smac mimetic BV6 and 10 μM Z-VAD-FMK. Cells were co-incubated in the presence of test compounds at target concentrations for 8 or 24 h. Nec-1 at 29.2 μM was used as positive control. For apoptosis assays, Jurkat E6.1 cells were co-incubated with 0.5 μg/mL CHX and test compounds at target concentrations for 8 h. […]
Adenylate kinase (AK) and lactate dehydrogenase (LDH) release from damaged cells were measured using the Toxilight BioAssay Kit (Lonza, Basel, Switzerland) and the Cytotoxicity Detection Kit (Roche Diagnostics GmbH, Mannheim, Germany), respectively. Adenosine triphosphate (ATP) metabolism was evaluated using CellTiter-Glo^TM Luminescent Cell Viability Assay (Promega, Madison, WI, USA). Apoptosis was determined by the measurement of caspase-3/-7 activity using the Caspase-Glo® 3/7 Assay (Promega) according to the manufacturer’s instructions. Cellular metabolic activity was measured using CellTiter 96® Aqueous Non-Radioactive Cell Proliferation (MTS) Assay (Promega). Luminescence signal was recorded using a GloMax®-MultiDetection System (Promega) and absorbance with a Model 680 microplate reader (Bio-Rad Laboratories Inc, Hercules, CA, USA).
Primary high-throughput screen. […] Eight hours after co-incubation of L929 cells with mTNF-α and test compounds, AK release was evaluated. […] Eight hours after co-incubation of L929 or Jurkat FADD^-/- cells with TNF-α and test compounds, AK release was evaluated. […]

[1] = test system: necroptosis proteins in liver tissue; experiment: p-MLKL/MLKL and p-RIPK3/RIPK3 immunoblot in liver tissue of SIRS mice; assay type: in vivo, mouse; settings: compared with mTNF-α alone; 5 mg/kg i.v.
Description: Representative blots and quantification of p-RIPK3/RIPK3 and p-MLKL/MLKL ratios in fold-change from control. Blots were normalized to endogenous β-actin.
Further details are provided as Supplementary Information.
Animal studies, injections and monitoring. Male C57BL/6J mice with 18-26 g (Charles River Laboratories International, Inc., Wilmington, MA, USA) were used at the age of 8-14 weeks. Five to seven animals were included in each experimental group. All animal experiments were carried out with the permission of local animal ethical committee in accordance with the EU Directive (2010/63/EU), Portuguese laws (DL113/2013, 2880/2015, 260/2016) and all relevant legislations. Animals received humane care in a temperature-controlled environment with a 12 h light-dark cycle and ad libitum access to pelleted chow and water, complying with the Institute’s guidelines, and as outlined in the “Guide for the Care and Use of Laboratory Animals” prepared by the National Academy of Sciences and published by the National Institutes of Health (NIH publication 86-23 revised 1985). […] Nec-1 was diluted as follows (v/v): 48% PBS 1X, 17% DMSO and 35% PEG 400. […] All injections were administered intravenously (i.v.) in 100 µL volume each.

[2] = Rat hepatic clearance (in vitro); assay type: in vitro ADME

Question: What does the source list for `CN1C(=O)C(Cc2c[nH]c3ccccc23)NC1=S` (stereo not drawn) [Nec-1, necrostatin-1]?
Answer: efflux ratio (MDR1): 0.45; Protection from necroptosis execution in BV2 cells (BV2 cells): complete protection against necroptosis execution; pEC50 (Jurkat FADD-/- cells): 6.41; EC50 (Jurkat FADD-/- cells): 398 nM; p-MLKL/MLKL ratio in mouse liver tissue [1]: decreased; p-RIPK3/RIPK3 ratio in mouse liver tissue [1]: decreased

Question: Which “Rat hepatic clearance (in vitro) rate” value [2] does the source give for `O=C(c1cnn(Cc2ccccc2)c1)N1CCOc2ccccc2C1` [SN-6109] here?
Answer: 87 μL/min/1E6

Question: And the pEC50 (Jurkat FADD-/- cells)?
Answer: 6.20

Question: And the EC50 (Jurkat FADD-/- cells)?
Answer: 631 nM
